These results are taken from US8541588B2, “Sulfonamide derivatives” (Pfizer Limited, priority 2009, dated 2013).

pIC50: −log10 of the molar value.

In the assay the target is T1, Nav1.7 (or SCN9A) channel; HEK cells stably transfected with hSCN9A (Homo sapiens, UniProt Q15858).
T1 construct: expressed in transfected cells
Description: Nav1.7 block, PatchXpress 7000 automated whole-cell voltage clamp, estimated IC50 (EIC50). It counts as cell-based. The settings on record: estimated IC50, hSCN9A HEK cells, PatchXpress platform.

T1 sequence (Q15858 whole entry): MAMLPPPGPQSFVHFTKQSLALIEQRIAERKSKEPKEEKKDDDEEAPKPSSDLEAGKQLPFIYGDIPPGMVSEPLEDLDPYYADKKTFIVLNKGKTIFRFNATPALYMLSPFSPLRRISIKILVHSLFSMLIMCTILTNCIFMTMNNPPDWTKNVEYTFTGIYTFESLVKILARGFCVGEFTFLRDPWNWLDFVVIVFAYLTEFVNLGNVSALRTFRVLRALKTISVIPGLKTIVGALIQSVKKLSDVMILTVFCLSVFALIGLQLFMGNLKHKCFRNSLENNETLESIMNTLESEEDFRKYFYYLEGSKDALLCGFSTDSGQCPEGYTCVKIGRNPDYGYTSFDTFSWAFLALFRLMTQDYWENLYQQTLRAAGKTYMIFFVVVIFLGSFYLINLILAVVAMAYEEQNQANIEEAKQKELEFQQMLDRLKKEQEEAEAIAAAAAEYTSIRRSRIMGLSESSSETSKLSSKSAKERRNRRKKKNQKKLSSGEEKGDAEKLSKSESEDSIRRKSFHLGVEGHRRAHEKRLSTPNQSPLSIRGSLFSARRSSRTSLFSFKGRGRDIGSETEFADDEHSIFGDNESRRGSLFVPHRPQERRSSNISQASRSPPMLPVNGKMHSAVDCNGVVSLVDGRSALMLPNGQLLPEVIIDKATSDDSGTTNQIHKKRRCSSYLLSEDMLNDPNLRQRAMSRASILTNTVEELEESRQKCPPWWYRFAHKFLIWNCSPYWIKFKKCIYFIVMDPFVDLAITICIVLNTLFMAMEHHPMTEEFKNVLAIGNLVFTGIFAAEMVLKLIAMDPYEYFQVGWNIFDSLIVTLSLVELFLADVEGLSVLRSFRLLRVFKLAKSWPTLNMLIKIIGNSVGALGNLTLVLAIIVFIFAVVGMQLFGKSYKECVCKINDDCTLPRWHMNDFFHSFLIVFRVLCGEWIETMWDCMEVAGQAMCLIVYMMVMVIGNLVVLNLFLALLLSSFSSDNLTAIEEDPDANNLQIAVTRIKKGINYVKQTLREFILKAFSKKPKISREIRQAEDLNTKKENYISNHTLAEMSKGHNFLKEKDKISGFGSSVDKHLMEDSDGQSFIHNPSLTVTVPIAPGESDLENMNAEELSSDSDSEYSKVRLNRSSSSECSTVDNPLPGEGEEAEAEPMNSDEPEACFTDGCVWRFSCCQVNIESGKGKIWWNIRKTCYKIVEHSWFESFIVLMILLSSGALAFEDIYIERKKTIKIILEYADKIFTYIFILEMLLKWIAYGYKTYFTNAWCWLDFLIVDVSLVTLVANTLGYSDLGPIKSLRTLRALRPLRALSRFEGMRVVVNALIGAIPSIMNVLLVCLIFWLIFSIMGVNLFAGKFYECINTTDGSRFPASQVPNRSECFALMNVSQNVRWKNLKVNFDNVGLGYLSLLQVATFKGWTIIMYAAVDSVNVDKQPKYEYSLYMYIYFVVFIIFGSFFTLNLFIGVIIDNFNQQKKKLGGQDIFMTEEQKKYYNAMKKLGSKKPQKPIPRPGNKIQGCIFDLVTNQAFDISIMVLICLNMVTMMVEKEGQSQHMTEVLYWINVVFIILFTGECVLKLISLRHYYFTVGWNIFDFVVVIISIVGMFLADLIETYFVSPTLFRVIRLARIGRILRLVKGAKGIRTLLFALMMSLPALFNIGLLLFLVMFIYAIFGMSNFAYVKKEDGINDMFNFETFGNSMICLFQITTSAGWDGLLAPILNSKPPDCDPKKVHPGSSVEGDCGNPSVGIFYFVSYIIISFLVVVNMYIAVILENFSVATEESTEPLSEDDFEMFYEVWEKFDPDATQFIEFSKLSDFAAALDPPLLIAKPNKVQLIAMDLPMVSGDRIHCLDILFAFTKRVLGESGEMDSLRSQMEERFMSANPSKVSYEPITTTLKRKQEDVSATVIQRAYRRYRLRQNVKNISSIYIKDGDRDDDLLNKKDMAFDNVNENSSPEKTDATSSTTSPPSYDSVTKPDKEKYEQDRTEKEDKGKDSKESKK

With `N#Cc1cc(S(=O)(=O)Nc2ncns2)ccc1Oc1ccc(Cl)cc1-c1ccc(CC(=O)O)cc1` [Example 1001, (5′-chloro-2′-{2-cyano-4-[(1,2,4-thiadiazol-5-ylamino)sulfonyl]phenoxy}biphenyl-4-yl)acetic acid], the pIC50 (commonly the IC50 on a negative log10 scale, so that one unit is a factor of ten) (Examples 815-1040) was 6.09. The same measure, in the same setting: next, `N#Cc1cc(S(=O)(=O)Nc2ncns2)ccc1Oc1ccc(Cl)cc1-c1cccc(C(=O)O)c1` [Example 1002, 5′-chloro-2′-{2-cyano-4-[(1,2,4-thiadiazol-5-ylamino)sulfonyl]phenoxy}biphenyl-3-carboxylic acid]: 6.85. The same measure, in the same setting: for `COC(=O)c1cccc(-c2cc(Cl)ccc2Oc2ccc(S(=O)(=O)Nc3ncns3)cc2C#N)c1` [Example 1003, methyl 5′-chloro-2′-{2-cyano-4-[(1,2,4-thiadiazol-5-ylamino)sulfonyl]phenoxy}biphenyl-3-carboxylate] the value was 7.70; for `N#Cc1cc(S(=O)(=O)Nc2ccc(F)cn2)ccc1Oc1ccc(F)cc1C1CC1` [Example 1004, 3-cyano-4-(2-cyclopropyl-4-fluorophenoxy)-N-(5-fluoropyridin-2-yl)benzenesulfonamide], 5.15. As for `N#Cc1cc(S(=O)(=O)Nc2ccc(F)cn2)ccc1Oc1ccccc1C1CCCCO1` (centres unmarked) [Example 1005, 3-cyano-N-(5-fluoropyridin-2-yl)-4-[2-(tetrahydro-2H-pyran-2-yl)phenoxy]benzenesulfonamide], the IC50 (commonly the concentration at which inhibition is half-maximal) (Examples 815-1040) is greater than 3000 nM. With `N#Cc1cc(S(=O)(=O)Nc2cccs2)ccc1Oc1ccccc1-c1ccccc1` [Example 1007, 4-(biphenyl-2-yloxy)-3-cyano-N-2-thienylbenzenesulfonamide], the pIC50 (Examples 815-1040) is 5.48. Turning to `CN(C)C(=O)c1cccc(-c2ccccc2)c1Oc1ccc(S(=O)(=O)Nc2ncns2)cc1C#N` [Example 1008, 2-{2-cyano-4-[(1,2,4-thiadiazol-5-ylamino)sulfonyl]phenoxy}-N,N-dimethylbiphenyl-3-carboxamide], the IC50 (Examples 815-1040) was 740 nM.

Regarding `Cc1ncccc1-c1cc(Cl)ccc1Oc1ccc(S(=O)(=O)Nc2ncns2)cc1C#N` [Example 1009, 4-[4-chloro-2-(2-methylpyridin-3-yl)phenoxy]-3-cyano-N-1,2,4-thiadiazol-5-ylbenzenesulfonamide], the pIC50 (Examples 815-1040) was 7.68. Regarding `Cc1nccnc1-c1cc(Cl)ccc1Oc1ccc(S(=O)(=O)Nc2ncns2)cc1C#N` [Example 1010, 4-[4-chloro-2-(3-methylpyrazin-2-yl)phenoxy]-3-cyano-N-1,2,4-thiadiazol-5-ylbenzenesulfonamide], the pIC50 (Examples 815-1040) was 6.09. On the same count and under the same terms, next, `Cc1cnccc1-c1cc(Cl)ccc1Oc1ccc(S(=O)(=O)Nc2ncns2)cc1C#N` [Example 1011, 4-[4-chloro-2-(3-methylpyridin-4-yl)phenoxy]-3-cyano-N-1,2,4-thiadiazol-5-ylbenzenesulfonamide]: 7.55; `CN1CC(n2nccc2-c2cc(Cl)ccc2Oc2cc(F)c(S(=O)(=O)Nc3ncccn3)cc2Cl)C1` [Example 1012, 5-chloro-4-{4-chloro-2-[1-(1-methylazetidin-3-yl)-1H-pyrazol-5-yl]phenoxy}-2-fluoro-N-pyrimidin-2-ylbenzenesulfonamide]: 6.57. The same measure, in the same setting: next, `Nc1cc(-c2cc(C(F)(F)F)ccc2Oc2ccc(S(=O)(=O)Nc3ccncn3)cc2Cl)ccn1` [Example 1013, 4-[2-(2-aminopyridin-4-yl)-4-(trifluoromethyl)phenoxy]-3-chloro-N-pyrimidin-4-ylbenzenesulfonamide]: 8.32; `Nc1cc(-c2cc(Cl)ccc2Oc2ccc(S(=O)(=O)Nc3cccnn3)cc2Cl)ccn1` [Example 1014, 4-[2-(2-aminopyridin-4-yl)-4-chlorophenoxy]-3-chloro-N-pyridazin-3-ylbenzenesulfonamide]: 8.00. `CN1CC(n2nccc2-c2cc(OC(F)(F)F)ccc2Oc2cc(F)c(S(=O)(=O)Nc3nncs3)cc2Cl)C1` [Example 1017, 5-chloro-2-fluoro-4-{2-[1-(1-methylazetidin-3-yl)-1H-pyrazol-5-yl]-4-(trifluoromethoxy)phenoxy}-N-1,3,4-thiadiazol-2-ylbenzenesulfonamide]: for the setting “Examples 815-1040”, the pIC50 was 8.68. On to `O=S(=O)(Nc1nncs1)c1ccc(Oc2ccc(Cl)cc2-c2ccnnc2)c(C(F)(F)F)c1` [Example 1018, 4-(4-chloro-2-pyridazin-4-ylphenoxy)-N-1,3,4-thiadiazol-2-yl-3-(trifluoromethyl)benzenesulfonamide], for which the pIC50 (Examples 815-1040) was 6.64. Take `Nc1n[nH]cc1-c1cc(Cl)ccc1Oc1cc(F)c(S(=O)(=O)Nc2ncccn2)cc1Cl` [Example 1019, 4-[2-(3-amino-1H-pyrazol-4-yl)-4-chlorophenoxy]-5-chloro-2-fluoro-N-pyrimidin-2-ylbenzenesulfonamide]: for the setting “Examples 815-1040”, the pIC50 was 7.66. In the case of `Nc1cc(-c2cc(Cl)ccc2Oc2cc(F)c(S(=O)(=O)Nc3cscn3)cc2F)ccn1` [Example 1020, 4-[2-(2-aminopyridin-4-yl)-4-dchlorophenoxy]-2,5-ifluoro-N-1,3-thiazol-4-ylbenzenesulfonamide], where the note is “Examples 815-1040”, the pIC50 is 7.72. Consider `CC(C)(C#N)c1ccc(Oc2cc(F)c(S(=O)(=O)Nc3nncs3)cc2Cl)c(-c2ccnnc2)c1` [Example 1021, 5-chloro-4-[4-(1-cyano-1-methylethyl)-2-pyridazin-4-ylphenoxy]-2-fluoro-N-1,3,4-thiadiazol-2-ylbenzenesulfonamide], for which the pIC50 (Examples 815-1040) is 5.89. For `CN1CC(n2nccc2-c2cc(C(F)(F)F)ccc2Oc2cc(F)c(S(=O)(=O)Nc3cscn3)cc2F)C1` [Example 1023, 2,5-Difluoro-4-{2-[1-(1-methylazetidin-3-yl)-1H-pyrazol-5-yl]-4-(trifluoromethyl)phenoxy}-N-1,3-thiazol-4-ylbenzenesulfonamide], the pIC50 (Examples 815-1040) is 8.40. Still for that read-out and setting: next, `N#Cc1cc(S(=O)(=O)Nc2ncns2)ccc1Oc1ccc(Cl)cc1-c1ccnc(OC2CCC2)c1` [Example 1025, 4-{4-Chloro-2-[2-(cyclobutyloxy)pyridin-4-yl]phenoxy}-3-cyano-N-1,2,4-thiadiazol-5-ylbenzenesulfonamide]: 8.39.

As for `CN(C)c1cc(-c2cc(Cl)ccc2Oc2ccc(S(=O)(=O)Nc3ncns3)cc2C#N)ccn1` [Example 1026, 4-{4-Chloro-2-[2-(dimethylamino)pyridin-4-yl]phenoxy}-3-cyano-N-1,2,4-thiadiazol-5-ylbenzenesulfonamide], the pIC50 (Examples 815-1040) is 8.80. Still for that read-out and setting: for `N#Cc1cc(S(=O)(=O)Nc2ncns2)ccc1Oc1ccc(Cl)cc1-c1ccnc(N2CCNCC2)n1` [Example 1030, 4-[4-Chloro-2-(2-piperazin-1-ylpyrimidin-4-yl)phenoxy]-3-cyano-N-1,2,4-thiadiazol-5-ylbenzenesulfonamide] the value was 9.15; for `Nc1cc(-c2cc(Cl)ccc2Oc2cc(F)c(S(=O)(=O)Nc3cccnn3)cc2Cl)ccn1` [Example 1031, 4-[2-(2-aminopyridin-4-yl)-4-chlorophenoxy]-5-chloro-2-fluoro-N-pyridazin-3-ylbenzenesulfonamide], 7.54. With `O=S(=O)(Nc1cscn1)c1cc(F)c(Oc2ccc(Cl)cc2-c2ccnc(CN3CCC3)c2)cc1F` [Example 1032, 4-{2-[2-(Azetidin-1-ylmethyl)pyridin-4-yl]-4-chlorophenoxy}-2,5-difluoro-N-1,3-thiazol-4-ylbenzenesulfonamide], for the setting “Examples 815-1040”, the pIC50 is 7.89.

For the compound `CCN1CC(n2nccc2-c2cc(C(F)(F)F)ccc2Oc2ccc(S(=O)(=O)Nc3ncns3)cc2C#N)C1` [Example 1033, 3-Cyano-4-{2-[1-(1-ethylazetidin-3-yl)-1H-pyrazol-5-yl]-4-(trifluoromethyl)phenoxy}-N-1,2,4-thiadiazol-5-ylbenzenesulfonamide], the pIC50 (Examples 815-1040) was 8.46.

On to `O=S(=O)(Nc1nncs1)c1cc(Cl)c(Oc2cc(F)c(C(F)(F)F)cc2-c2ccnnc2)cc1F` [Example 1034, 5-Chloro-2-fluoro-4-[5-fluoro-2-pyridazin-4-yl-4-(trifluoromethyl)phenoxy]-N-1,3,4-thiadiazol-2-ylbenzenesulfonamide], for which the pIC50 (Examples 815-1040) was 7.96.

With `N#Cc1cc(S(=O)(=O)Nc2ncns2)ccc1Oc1cc(F)c(C(F)(F)F)cc1-c1ccnnc1` [Example 1035, 3-Cyano-4-[5-fluoro-2-pyridazin-4-yl-4-(trifluoromethyl)phenoxy]-N-1,2,4-thiodiazol-5-ylbenzenesulfonamide], the pIC50 (Examples 815-1040) is 8.42. As to `Nc1n[nH]cc1-c1cc(Cl)ccc1Oc1cc(F)c(S(=O)(=O)Nc2ccncn2)cc1Cl` [Example 1036, 4-[2-(3-amino-1H-pyrazol-4-yl)-4-chlorophenoxy]-5-chloro-2-fluoro-N-pyrimidin-4-ylbenzenesulfonamide], the IC50 (Examples 815-1040) was 21 nM. As for `Cc1cc(S(=O)(=O)Nc2nncs2)c(F)cc1Oc1ccc(OC(F)(F)F)cc1-c1ccnnc1` [Example 1037, 2-fluoro-5-methyl-4-[2-pyridazin-4-yl-4-(trifluoromethoxy)phenoxy]-N-1,3,4-thiadiazol-2-ylbenzenesulfonamide], the negative-log IC50 (pIC50) (Examples 815-1040) was 7.92. Still for that read-out and setting: for `Nc1n[nH]cc1-c1cc(Cl)ccc1Oc1cc(F)c(S(=O)(=O)Nc2cccnn2)cc1Cl` [Example 1038, 4-[2-(3-amino-1H-pyrazol-4-yl)-4-chlorophenoxy]-5-chloro-2-fluoro-N-pyridazin-3-ylbenzenesulfonamide] the value was 7.47. As to `Cn1nccc1-c1cc(Cl)ccc1Oc1ccc(S(=O)(=O)/N=c2\sccn2COP(=O)(O)O)cc1C#N` [Example 1039, [(2Z)-2-[({4-[4-Chloro-2-(1-methyl-1H-pyrazol-5-yl)phenoxy]-3-cyanophenyl}sulfonyl)imino]-1,3-thiazol-3(2H)-yl]methyl dihydrogen phosphate], under “Examples 815-1040”, the IC50 is 310 nM. As for “tert-Butyl [(5-chloro-2,4-difluorophenyl)sulfonyl](5-cyano-1,3-thiazol-4-yl)carbamate [Example 516]”, the pIC50 (Examples 283-814) is 5.00.
